Reference: patent publication US20100285959A1, “HERBICIDAL MIXTURES” (priority 2006, published 2010)

Columns and labels:
[1] = system: Surinam grass (BRADC); test: Test 11 field trial, preemergence; assay type: in vivo, Brachiaria decumbens; set-up: scale not given here; details: alone or + atrazine 1500 or metolachlor 2500
Description: (§1) Corn seeds (hybrid ‘Pioneer 3041’) were planted in mid spring season, 5 cm deep in a clay soil having 2.6% organic matter and a pH of 5.6. Plots were 8 m long by 1.5 m wide with rows spaced 80 cm apart. Seeds were spaced 15 cm apart within the rows. The field was managed using conventional tillage practices. […] Treatments consisted of Compound 2 or
(§2) Goosegrass was not evaluated 16 or 91 days after application.

[2] = system: yellow foxtail (SETLU); test: Test 5 field trial, postemergence; assay type: in vivo, Setaria glauca
Description: (§3) Corn seeds (hybrid ‘Pioneer 38H69’) were planted in mid spring season, 5.1 cm deep in a silty clay loam soil having 3% organic matter and a pH of 6.5. Plots were 9.1 m long by 3.0 m wide with rows spaced 76 cm apart. The field was managed using conventional tillage practices. […] All treatments included a surfactant except glufosinate treatments, both alone and in combination. […] Results are summarized in Table 5 and are the means of the three replicates.

[3] = system: giant foxtail (SETFA); test: Test 1 field trial, preemergence; assay type: in vivo, Setaria faberi
Description: (§4) Corn seeds (hybrid ‘Pioneer 34N43’) were planted in mid spring season, 3.8 cm deep in a silt loam soil having 4.6% organic matter and a pH of 6. Plots were 10.7 m long by 1.5 m wide with rows spaced 76 cm apart. Seeds were spaced 18 cm apart within the rows. The field was managed using conventional tillage practices. […] Results are summarized in Table 1 and are the means of the three replicates. […] Colby's Equation (Colby, S. R. “Calculating Synergistic and Antagonistic Responses of Herbicide Combinations,” Weeds, 15(1), pp 20-22 (1967)) calculates the expected additive effect of herbicidal mixtures, and for two active ingredients is of the form:
(§5) Pa+b=Pa+Pb−(PaPb/100) • wherein Pa+b is the percentage effect of the mixture expected from additive contribution of the individual components, • Pa is the observed percentage effect of the first active ingredient at the same use rate as in the mixture, and • Pb is the observed percentage effect of the second active ingredient at the same use rate as in the mixture.

[4] = system: redroot pigweed (AMARE); test: Test 1 field trial, preemergence; assay type: in vivo, Amaranthus retroflexus
Description: as §4, §5

[5] = system: velvetleaf (ABUTH); test: Test 5 field trial, postemergence; assay type: in vivo, Abutilon theophrasti
Description: as §3

[6] = system: Ipomoea grandiflora (IPOGF); test: Test 11 field trial, preemergence; assay type: in vivo
Description: as §1, §2

[7] = system: common lambsquarters (CHEAL); test: Test 1 field trial, preemergence; assay type: in vivo, Chenopodium album
Description: as §4, §5

[8] = system: Brazilian crabgrass (DIGHO); test: Test 11 field trial, preemergence; assay type: in vivo, Digitaria horizontalis; set-up: scale not given here; details: alone or + atrazine 1500 or metolachlor 2500
Description: as §1, §2

[9] = system: common lambsquarters (CHEAL); test: Test 5 field trial, postemergence; assay type: in vivo, Chenopodium album
Description: as §3

[10] = system: ivyleaf morningglory (IPOHE); test: Test 10 field trial, preemergence; assay type: in vivo, Ipomoea hederacea; details: 28 DAA
Description: Corn seeds (hybrid ‘Pioneer 33P65 RR’) were planted in mid spring season, 2.5 cm deep in a silt loam soil. Plots were 9.1 m long by 3.0 m wide with rows spaced 76 cm apart. The field was managed using conventional tillage practices. […] Results are the means of the three replicates.

[11] = system: redroot pigweed (AMARE); test: Test 6 field trial, postemergence; assay type: in vivo, Amaranthus retroflexus
Description: Corn seeds (hybrid ‘Pioneer 35Y62’) were planted in mid spring season, 3.8 cm deep in a silt loam soil having 4% organic matter and a pH of 5.8. Plots were 10.7 m long by 1.5 m wide with rows spaced 76 cm apart. Seeds were spaced 18 cm apart within the rows. The field was managed using conventional tillage practices. […] All treatments included a surfactant except glufosinate treatments, both alone and in combination. […] Results are summarized in Table 6 and are the means of the three replicates.

[12] = system: alexandergrass (BRAPL); test: Test 11 field trial, preemergence; assay type: in vivo, Brachiaria plantaginea; set-up: scale not given here; details: alone or + atrazine 1500 or metolachlor 2500
Description: as §1, §2

[13] = system: corn (ZEAMD); test: Test 8 field trial, preemergence; assay type: in vivo, Zea mays ssp. indentata; details: hybrid Pioneer 31G96, corn (Zea mays ssp. indentata), in vivo, 56 days after application
Description: Corn seeds (hybrid ‘Pioneer 31G96’) were planted in mid spring season, 3.8 cm deep in a clay loam soil having 2% organic matter and a pH of 6.6. Plots were 6.1 m long by 3.0 m wide with rows spaced 76 cm apart. Seeds were spaced 15 cm apart within the rows. The field was managed using conventional tillage practices. […] A few of the weed species could not be evaluated at every timing. […] Results are the means of the three replicates.

[14] = 16 DAA, Cpd 2/Cpd 1 at 62 g a.i./ha
[15] = 16 DAA, Cpd 2/Cpd 1 at 125 g a.i./ha
[16] = 30 DAA, Cpd 2/Cpd 1 at 62 g a.i./ha
[17] = 30 DAA, Cpd 2/Cpd 1 at 125 g a.i./ha
[18] = 44 DAA, Cpd 2/Cpd 1 at 62 g a.i./ha
[19] = 44 DAA, Cpd 2/Cpd 1 at 125 g a.i./ha
[20] = 62 DAA, Cpd 2/Cpd 1 at 62 g a.i./ha
[21] = 62 DAA, Cpd 2/Cpd 1 at 125 g a.i./ha
[22] = 91 DAA, Cpd 2/Cpd 1 at 62 g a.i./ha
[23] = 91 DAA, Cpd 2/Cpd 1 at 125 g a.i./ha
[24] = 16 DAA, Cpd 2 30 g a.i./ha alone or with glufosinate 470 or glyphosate 1120
[25] = 16 DAA, Cpd 2 60 g a.i./ha alone or with atrazine 1120, glufosinate 470 or glyphosate 1120
[26] = 31 DAA, Cpd 2 30 g a.i./ha alone or with glufosinate 470 or glyphosate 1120
[27] = 31 DAA, Cpd 2 60 g a.i./ha alone or with atrazine 1120, glufosinate 470 or glyphosate 1120
[28] = 28 DAA, g a.i./ha: Cpd 2 50, S-Metolachlor 1870
[29] = 28 DAA, g a.i./ha: Cpd 2 100, Atrazine 1680, S-Metolachlor 1870
[30] = 28 DAA, g a.i./ha: Cpd 2 150, S-Metolachlor 1870
[31] = 56 DAA, g a.i./ha: Cpd 2 50, S-Metolachlor 1870
[32] = 56 DAA, g a.i./ha: Cpd 2 100, Atrazine 1680, S-Metolachlor 1870
[33] = 56 DAA, g a.i./ha: Cpd 2 150, S-Metolachlor 1870

COC(=O)c1nc(C2CC2)nc(N)c1Cl [Compound 2, methyl 6-amino-5-chloro-2-cyclopropyl-4-pyrimidinecarboxylate]
83%: CHEAL Obs [9, 24]
87%: CHEAL Obs [9, 25]
55: AMARE Obs [4, 32] | CHEAL Obs [7, 32]
5%: IPOHE Obs ([10]; g a.i./ha: Cpd 2 100, Atrazine 1680, S-Metolachlor 1870)
20%: IPOHE Obs ([10]; g a.i./ha: Cpd 2 150, S-Metolachlor 1870)
82%: ABUTH Obs [5, 27] | CHEAL Obs [9, 26]
0%: SETLU Obs [2, 25] | SETLU Obs [2, 26] | ZEAMD Obs [13]
60: BRADC Obs [1, 15] | BRADC Obs [1, 19] | IPOGF Obs ([6]; 30 DAA, Cpd 2/Cpd 1 at 125 g a.i./ha, alone or + atrazine 1500 or metolachlor 2500) | BRAPL Obs [12, 19]
2%: SETLU Obs [2, 24] | SETLU Obs [2, 27]
98%: AMARE Obs ([11]; 14 DAA, 60 g a.i./ha) | AMARE Obs ([11]; 28 DAA, 60 g a.i./ha)
7: AMARE Obs [4, 29] | AMARE Obs [4, 31] | CHEAL Obs [7, 29] | CHEAL Obs [7, 30] | CHEAL Obs [7, 31]
40: BRADC Obs [1, 14] | BRADC Obs [1, 16] | IPOGF Obs ([6]; 16 DAA, Cpd 2/Cpd 1 at 125 g a.i./ha, alone or + atrazine 1500 or metolachlor 2500) | IPOGF Obs ([6]; 30 DAA, Cpd 2/Cpd 1 at 62 g a.i./ha, alone or + atrazine 1500 or metolachlor 2500) | DIGHO Obs [8, 15] | DIGHO Obs [8, 17] | BRAPL Obs [12, 14]
70: BRADC Obs [1, 17] | BRAPL Obs [12, 15]
100: AMARE Obs [4, 33] | CHEAL Obs [7, 33]
81%: ABUTH Obs [5, 25]
77%: ABUTH Obs [5, 26]
100%: AMARE Obs ([11]; 14 DAA, 30 g a.i./ha) | AMARE Obs ([11]; 28 DAA, 30 g a.i./ha)
50: IPOGF Obs ([6]; 44 DAA, Cpd 2/Cpd 1 at 125 g a.i./ha, alone or + atrazine 1500 or metolachlor 2500)
58: AMARE Obs [4, 30]
13%: IPOHE Obs ([10]; g a.i./ha: Cpd 2 50, S-Metolachlor 1870)
75: BRAPL Obs [12, 17]
99%: CHEAL Obs [9, 27]
76%: ABUTH Obs [5, 24]
0: BRADC Obs [1, 18] | BRADC Obs [1, 20] | BRADC Obs [1, 21] | BRADC Obs [1, 22] | BRADC Obs [1, 23] | SETFA Obs [3, 28] | SETFA Obs [3, 29] | SETFA Obs [3, 30] | SETFA Obs [3, 31] | SETFA Obs [3, 32] | SETFA Obs [3, 33] | AMARE Obs [4, 28] | IPOGF Obs ([6]; 16 DAA, Cpd 2/Cpd 1 at 62 g a.i./ha, alone or + atrazine 1500 or metolachlor 2500) | IPOGF Obs ([6]; 44 DAA, Cpd 2/Cpd 1 at 62 g a.i./ha, alone or + atrazine 1500 or metolachlor 2500) | IPOGF Obs ([6]; 62 DAA, 62 g a.i./ha, scale 0 to 100) | IPOGF Obs ([6]; 62 DAA, 125 g a.i./ha, scale 0 to 100) | IPOGF Obs ([6]; 91 DAA, 62 g a.i./ha, scale 0 to 100) | IPOGF Obs ([6]; 91 DAA, 125 g a.i./ha, scale 0 to 100) | CHEAL Obs [7, 28] | DIGHO Obs [8, 14] | DIGHO Obs [8, 16] | DIGHO Obs [8, 18] | DIGHO Obs [8, 19] | DIGHO Obs [8, 20] | DIGHO Obs [8, 21] | DIGHO Obs [8, 22] | DIGHO Obs [8, 23] | BRAPL Obs [12, 16] | BRAPL Obs [12, 18] | BRAPL Obs [12, 20] | BRAPL Obs [12, 21] | BRAPL Obs [12, 22] | BRAPL Obs [12, 23]
